{
  "source": "PubChem BioAssay AID624028",
  "about": "(Vanderbilt Specialized Chemistry Center, 2012)",
  "target": "Metabotropic glutamate receptor 3 (Rattus norvegicus) (UniProt P31422)",
  "sequence (P31422 whole entry, looked up)": "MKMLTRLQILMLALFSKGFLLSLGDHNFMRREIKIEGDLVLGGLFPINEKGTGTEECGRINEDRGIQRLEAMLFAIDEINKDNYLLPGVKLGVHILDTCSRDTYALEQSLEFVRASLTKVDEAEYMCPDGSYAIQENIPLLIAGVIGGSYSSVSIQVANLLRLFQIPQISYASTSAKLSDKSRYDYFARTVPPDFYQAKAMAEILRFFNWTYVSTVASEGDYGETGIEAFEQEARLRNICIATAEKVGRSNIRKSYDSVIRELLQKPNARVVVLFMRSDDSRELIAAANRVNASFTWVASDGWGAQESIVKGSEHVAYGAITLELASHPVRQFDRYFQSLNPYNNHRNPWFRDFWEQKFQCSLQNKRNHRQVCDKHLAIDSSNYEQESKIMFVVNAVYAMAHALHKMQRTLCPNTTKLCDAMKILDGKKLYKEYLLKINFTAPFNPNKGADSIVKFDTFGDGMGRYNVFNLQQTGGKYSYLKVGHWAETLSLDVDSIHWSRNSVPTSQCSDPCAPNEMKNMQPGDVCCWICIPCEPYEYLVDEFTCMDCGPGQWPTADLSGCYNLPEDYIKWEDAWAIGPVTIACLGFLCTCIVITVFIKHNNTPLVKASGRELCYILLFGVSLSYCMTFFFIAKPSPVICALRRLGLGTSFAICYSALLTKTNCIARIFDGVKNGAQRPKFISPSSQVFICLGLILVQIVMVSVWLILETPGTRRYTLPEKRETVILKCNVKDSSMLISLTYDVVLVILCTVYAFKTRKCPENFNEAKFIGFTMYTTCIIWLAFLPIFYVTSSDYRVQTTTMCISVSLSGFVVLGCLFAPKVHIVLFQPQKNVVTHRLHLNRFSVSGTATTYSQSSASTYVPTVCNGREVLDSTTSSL",
  "assay": "PubChem AID 624028",
  "details": "TREx293 mGlu3/Galpha15, calcium fluorescence, antagonist mode",
  "data": [
    {"compound": "COc1ccc(C#Cc2ccc(C(=O)N3CCC[C@@H](CO)C3)cc2)cc1", "values": [
      {"measurement": "IC50", "value": 650, "unit": "nM"}
    ]}
  ]
}
